# Assay: gradient 5% acetonitrile 3 min, to 50% in 2 min, to 85% in 15 min, held 3 min, 100 µL/min
# Settings: column: Zorbax Extend-C18 2.1 x 50 mm; eluents: water / acetonitrile, 0.1% formic acid
# Outline: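 Over 3 months, pure standards in mixtures of ~100 molecules were run by HPLC coupled to a quadrupole time-of-flight mass spectrometer in positive and negative ionization mode. The column was a Zorbax Extend-C18 (2.1 × 50 mm, 1.8 μm) at 100 μL/min, eluted with water and acetonitrile each holding 0.1% formic acid, with 40 μL dead and 900 μL dwell volumes. Retention time was determined from adduct peaks chosen by software and checked manually.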
row,Structure (SMILES),RP-LC retention time [s]
1,CN1CCc2[nH]cnc2C12CCN(C(=O)Nc1ccc(Cl)cc1F)C2 (centres undefined),567
2,O=C(NC1CC1)[C@@H]1OCCN(C2CC2)[C@H]1c1ccccc1,572
3,O=C(CCc1c(-c2ccc(Br)cc2)nc2ccccn12)NCCC1=CCCCC1,753
4,CCC(Oc1ccc(Cl)cc1)C(=O)OC1CC2CCC(C1)N2C (centres undefined),815
5,Cc1cc(C)c(NC(=O)Cn2cccc2-c2nc(-c3ccc4c(c3)OCO4)no2)c(C)c1,1120
6,O=C(c1ccccc1F)N1N=C(c2cccs2)CC1c1ccc2nccnc2c1 (centres undefined),791
7,CCN(C(=O)C1CCC(C)CC1)c1nc(-c2ccccc2)cs1 (centres undefined),838
8,CCc1ccc(S(=O)(=O)N2CCCN(C)c3ccccc32)cc1,1100
9,O=C(C1CCC1)N1CCCCCC1CN1CCOCC1 (centres undefined),595
10,COc1ccc(NC(=O)NCCc2nc3cccnc3n2C2CCCC2)cc1OC,647
11,CCCN1C(=O)c2ccccc2C(C(=O)NC2CCCCC2)C1c1cc(OC)c(OC)c(OC)c1 (centres undefined),838
12,COc1c(C(=O)NCc2cc(F)cc(F)c2)sc2ccc(F)cc12,1070
13,CCOC(=O)c1ccccc1NC(=O)Cn1c(=O)n(CC)c(=O)c2c1cc(C)n2C,978
14,O=C(NCc1cccc(Cl)c1)C1CCN(C(=O)c2ncn3c2COC(c2ccccc2)C3)CC1 (centres undefined),760
15,CCc1ccc(NC(=O)N2CCC(N3CCN(Cc4ccccc4)C(=O)C3=O)CC2)cc1,789
16,COc1ccc(CC(=O)NC(C)C(=O)Nc2nc3ccccc3[nH]2)cc1Cl (centres undefined),671
17,COC(=O)C(NC(=O)N1CCCn2nc(-c3ccncc3)cc2C1)c1ccccc1 (centres undefined),606
18,CCC(C)N(CC(=O)N(Cc1ccco1)CC1CCCO1)C(=O)c1ccccc1OC (centres undefined),805
19,COc1ccc(N2C(=O)CCC(C(=O)NCCCN3CCC(C)CC3)C2c2ccc(F)cc2)cc1 (centres undefined),605
20,Cc1cccn2cc(C(=O)NCc3ccc(N(C)C)cc3)nc12,565
21,CCn1cc(CCN2CCC(C(=O)Nc3ccc(C)cc3)CC2)c2cccnc21,644
22,COc1ccc(N2CC(C(=O)N3CCC(c4noc(-c5ccccc5)n4)CC3)CC2=O)cc1 (centres undefined),855

row,Structure (SMILES),RP-LC retention time [s]
1,CCOC(=O)Cc1cc(=O)oc2cc(O)cc(O)c12,660
2,CCN1C(=O)COc2ccc(-c3nc(NC(=O)c4ccccc4C)sc3C)cc21,1010
3,CSc1cccc(NC(=O)Cn2c(-c3cnccn3)nc(C)c(C)c2=O)c1,769
4,c1ccc(-n2ccnc2SCc2nc(-c3ccc4c(c3)OCO4)no2)cc1,790
5,Cc1noc(-c2ccnc(-n3ncc(C(=O)N4CCOCC4)c3C)c2)n1,693
6,CCOC(=O)c1cccc(NC(=O)C2CCCN(C(=O)C3Sc4ccccc4NC3=O)C2)c1 (centres undefined),851
7,Cc1ccc(C)c(C(=O)NCCc2nc3cccnc3n2C(C)C)c1,705
8,COCCN(CC(=O)N1CCc2sccc2C1COc1ccccc1C)C(=O)CC(C)C (centres undefined),973
9,CCOC(=O)CNC(=O)Nc1cc(F)c2nc(N3CCCCC3)ccc2c1,596
10,CCOc1ccccc1-n1ccn(Cc2nc(-c3ccc(C)c(C)c3)no2)c(=O)c1=O,958
11,O=[N+]([O-])c1ccc(-c2cn3ccccc3n2)cc1,598
12,CN(CC(=O)N1CCN(c2cccc(Cl)c2)CC1)S(=O)(=O)c1ccc2c(c1)CCCC(=O)N2,822
13,CCOC(=O)c1nnc2c(-c3ccc(F)cc3)c(C)nn2c1N,857
14,COc1ccc(S(=O)(=O)NCCc2cn(CC(C)C)c3ncccc23)cc1Cl,962
15,O=C(NC1CCCCCCC1)C1CCCN(S(=O)(=O)c2c[nH]c(C(=O)N3CCCCCC3)c2)C1 (centres undefined),980
16,O=C(C1CC1)N1CCc2sc(S(=O)(=O)N3CCN(c4ccccc4)CC3)cc2C1,987
17,Cc1cccc(-c2noc(Cn3c(=O)n(Cc4ccccc4)c(=O)c4sccc43)n2)c1,1060
18,Cc1noc(C2CCCCN2C(=O)c2cc(-c3ccccc3)n[nH]2)n1 (centres undefined),796
19,O=C(CCc1nnn2c1CN(C(=O)c1nccc3ccccc13)CC2)N1CCCC1,625
20,CCc1cccc(NC(=O)N2CCc3c(c(COc4ccccc4)nn3C)C2)c1,934
21,CO[C@H]1CN(C2CCN(S(=O)(=O)Cc3ccccc3F)CC2)[C@H]1c1ccncc1,620
22,CN1C(=O)C(C)(C(=O)N2CCC(Cc3ccccc3)CC2)Oc2cccnc21 (centres undefined),1020

# — the METLIN SMRT retention time set (Domingo-Almenara et al. 2019)
